Assay results reported in ChEMBL document CHEMBL4145553, “Design, synthesis, and biological evaluation of novel amide and hydrazide based thioether analogs targeting Histone deacteylase (HDAC) enzymes” (Eur J Med Chem, 2018).
pIC50: −log10 of the molar value.

Tests used:
[1] = tested on: IGROV-1; experiment: Growth inhibition of human IGROV1 cells incubated for 48 hrs by sulforhodamine B assay; format: functional; settings: IGROV-1, 48 h
[2] = tested on: MDA-MB-231; experiment: Growth inhibition of human MDA-MB-231 cells assessed as cell growth at 10^-5 M incubated for 48 hrs by sulforhodamine B assay relative to control; format: functional; settings: MDA-MB-231, 48 h, read-out: Activity
[3] = tested on: BT-549; experiment: Growth inhibition of human BT549 cells assessed as cell growth at 10^-4 M incubated for 48 hrs by sulforhodamine B assay relative to control; format: functional; settings: BT-549, 48 h, read-out: Activity
[4] = tested on: RPMI-8226; experiment: Growth inhibition of human RPMI8226 cells assessed as cell growth at 10^-6 M incubated for 48 hrs by sulforhodamine B assay relative to control; format: functional; settings: RPMI-8226, 48 h, read-out: Activity
[5] = tested on: OVCAR-4; experiment: Growth inhibition of human OVCAR4 cells assessed as cell growth at 10^-4 M incubated for 48 hrs by sulforhodamine B assay relative to control; format: functional; settings: OVCAR-4, 48 h, read-out: Activity
[6] = tested on: NCI/ADR-RES; experiment: Growth inhibition of human NCI/ADR-RES cells assessed as cell growth at 10^-6 M incubated for 48 hrs by sulforhodamine B assay relative to control; format: functional; settings: read-out: Activity
[7] = tested on: T47D; experiment: Growth inhibition of human T47D cells assessed as cell growth at 10^-8 M incubated for 48 hrs by sulforhodamine B assay relative to control; format: functional; settings: read-out: Activity
[8] = tested on: MDA-MB-435; experiment: Induction of apoptosis in human MDA-MB-435 cells assessed as early apoptotic cells by propidium iodide/Annexin V staining based flow cytometry (reference value: 0.25%); format: functional
[9] = tested on: SW-620; experiment: Growth inhibition of human SW620 cells assessed as cell growth at 10^-6 M incubated for 48 hrs by sulforhodamine B assay relative to control; format: functional; settings: SW-620, 48 h, read-out: Activity
[10] = tested on: MDA-MB-435; experiment: Growth inhibition of human MDA-MB-435 cells assessed as cell growth at 10^-6 M incubated for 48 hrs by sulforhodamine B assay relative to control; format: functional; settings: MDA-MB-435, 48 h, read-out: Activity
[11] = tested on: HCT-116; experiment: Growth inhibition of human HCT116 cells assessed as cell growth at 10^-8 M incubated for 48 hrs by sulforhodamine B assay relative to control; format: functional; settings: HCT-116, 48 h, read-out: Activity
[12] = tested on: M14; experiment: Growth inhibition of human M14 cells incubated for 48 hrs by sulforhodamine B assay; format: functional; settings: M14, 48 h
[13] = tested on: LOX IMVI; experiment: Growth inhibition of human LOXIMVI cells assessed as cell growth at 10^-8 M incubated for 48 hrs by sulforhodamine B assay relative to control; format: functional; settings: read-out: Activity
[14] = tested on: OVCAR-4; experiment: Growth inhibition of human OVCAR4 cells incubated for 48 hrs by sulforhodamine B assay; format: functional; settings: OVCAR-4, 48 h
[15] = target: Histone deacetylase 8 (Homo sapiens, UniProt Q9BY41); experiment: Inhibition of HDAC8 (unknown origin) by ELISA
Histone deacetylase 8, sequence (Q9BY41 whole entry): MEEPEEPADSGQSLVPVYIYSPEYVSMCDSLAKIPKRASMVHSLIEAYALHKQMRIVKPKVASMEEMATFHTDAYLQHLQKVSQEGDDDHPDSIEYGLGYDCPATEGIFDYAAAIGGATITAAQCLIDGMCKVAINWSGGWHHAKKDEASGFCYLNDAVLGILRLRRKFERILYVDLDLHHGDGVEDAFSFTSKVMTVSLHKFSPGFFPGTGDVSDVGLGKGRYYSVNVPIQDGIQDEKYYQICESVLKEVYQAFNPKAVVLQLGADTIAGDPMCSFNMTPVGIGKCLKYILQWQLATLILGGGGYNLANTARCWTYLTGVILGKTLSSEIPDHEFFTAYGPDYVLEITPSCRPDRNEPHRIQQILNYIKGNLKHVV

[16] = tested on: IGROV-1; experiment: Growth inhibition of human IGROV1 cells assessed as cell growth at 10^-6 M incubated for 48 hrs by sulforhodamine B assay relative to control; format: functional; settings: IGROV-1, 48 h, read-out: Activity
[17] = tested on: SF-539; experiment: Growth inhibition of human SF539 cells assessed as cell growth at 10^-4 M incubated for 48 hrs by sulforhodamine B assay relative to control; format: functional; settings: SF-539, 48 h, read-out: Activity
[18] = tested on: NCI-H23; experiment: Growth inhibition of human NCI-H23 cells assessed as cell growth at 10^-4 M incubated for 48 hrs by sulforhodamine B assay relative to control; format: functional; settings: NCI-H23, 48 h, read-out: Activity
[19] = tested on: TK-10; experiment: Growth inhibition of human TK10 cells assessed as cell growth at 10^-6 M incubated for 48 hrs by sulforhodamine B assay relative to control; format: functional; settings: TK-10, 48 h, read-out: Activity
[20] = tested on: RPMI-8226; experiment: Growth inhibition of human RPMI8226 cells incubated for 48 hrs by sulforhodamine B assay; format: functional; settings: RPMI-8226, 48 h
[21] = tested on: TK-10; experiment: Growth inhibition of human TK10 cells assessed as cell growth at 10^-8 M incubated for 48 hrs by sulforhodamine B assay relative to control; format: functional; settings: TK-10, 48 h, read-out: Activity
[22] = tested on: MDA-MB-231; experiment: Growth inhibition of human MDA-MB-231 cells incubated for 48 hrs by sulforhodamine B assay; format: functional; settings: MDA-MB-231, 48 h
[23] = tested on: T47D; experiment: Growth inhibition of human T47D cells assessed as cell growth at 10^-5 M incubated for 48 hrs by sulforhodamine B assay relative to control; format: functional; settings: read-out: Activity
[24] = tested on: HL-60(TB); experiment: Growth inhibition of human HL-60(TB) cells assessed as cell growth at 10^-6 M incubated for 48 hrs by sulforhodamine B assay relative to control; format: functional; settings: HL-60, 48 h, read-out: Activity
[25] = tested on: HL-60(TB); experiment: Growth inhibition of human HL-60(TB) cells assessed as cell growth at 10^-8 M incubated for 48 hrs by sulforhodamine B assay relative to control; format: functional; settings: HL-60, 48 h, read-out: Activity
[26] = tested on: SK-MEL-28; experiment: Growth inhibition of human SK-MEL-28 cells incubated for 48 hrs by sulforhodamine B assay; format: functional; settings: SK-MEL-28, 48 h
[27] = tested on: NCI-H23; experiment: Growth inhibition of human NCI-H23 cells incubated for 48 hrs by sulforhodamine B assay; format: functional; settings: NCI-H23, 48 h
[28] = tested on: NCI-H460; experiment: Growth inhibition of human NCI-H460 cells assessed as cell growth at 10^-6 M incubated for 48 hrs by sulforhodamine B assay relative to control; format: functional; settings: NCI-H460, 48 h, read-out: Activity
[29] = tested on: NCI-H522; experiment: Growth inhibition of human NCI-H522 cells assessed as cell growth at 10^-5 M incubated for 48 hrs by sulforhodamine B assay relative to control; format: functional; settings: NCI-H522, 48 h, read-out: Activity
[30] = read-out: LC50 (the source's name)
[31] = read-out: pLC50 (the source's name) (converted)

CCS/C(Nc1ccccc1)=C(\C#N)C(=O)N/N=C\c1ccc(Cl)cc1Cl
GI50 ([1]; read-out: GI50): 6.46 µM | CC50 [1, 30]: > 100 µM | TGI ([1]; read-out: TGI): > 100 µM | GI50 ([1]; read-out: pGI50 (converted)): 6.46 µM | CC50 [1, 31]: > 100 µM | TGI ([1]; read-out: pTGI): > 100 µM | growth at 10 µM [2]: 32% | growth at 100 µM [3]: 7% | growth at 1 µM [4]: 92% | growth at 100 µM [5]: 9% | growth at 1 µM [6]: 87% | growth at 0.01 µM [7]: 102% | Activity [8]: 2.52% | growth at 1 µM [9]: 88% | growth at 1 µM [10]: 28% | growth at 0.01 µM [11]: 96% | GI50 ([12]; read-out: GI50): 2.01 µM | CC50 [12, 30]: > 100 µM | TGI ([12]; read-out: TGI): 9.61 µM | GI50 ([12]; read-out: pGI50 (converted)): 2 µM | CC50 [12, 31]: > 100 µM | TGI ([12]; read-out: pTGI (converted)): 9.55 µM | growth at 0.01 µM [13]: 95% | GI50 ([14]; read-out: GI50): 6.57 µM | CC50 [14, 30]: > 100 µM | TGI ([14]; read-out: TGI): > 100 µM | GI50 ([14]; read-out: pGI50 (converted)): 6.61 µM | CC50 [14, 31]: > 100 µM | TGI ([14]; read-out: pTGI): > 100 µM | pIC50 [15]: 6.69 | growth at 1 µM [16]: 84% | growth at 100 µM [17]: -6% | growth at 100 µM [18]: 36% | growth at 1 µM [19]: 97% | GI50 ([20]; read-out: GI50): 3.68 µM | CC50 [20, 30]: > 100 µM | TGI ([20]; read-out: TGI): > 100 µM | GI50 ([20]; read-out: pGI50 (converted)): 3.72 µM | CC50 [20, 31]: > 100 µM | TGI ([20]; read-out: pTGI): > 100 µM | growth at 0.01 µM [21]: 93% | GI50 ([22]; read-out: GI50): 4.75 µM | CC50 [22, 30]: > 100 µM | TGI ([22]; read-out: TGI): > 100 µM | GI50 ([22]; read-out: pGI50 (converted)): 4.79 µM | CC50 [22, 31]: > 100 µM | TGI ([22]; read-out: pTGI (converted)): > 100 µM | growth at 10 µM [23]: 24% | growth at 1 µM [24]: 93% | growth at 0.01 µM [25]: 97% | GI50 ([26]; read-out: GI50): 23.6 µM | CC50 [26, 30]: > 100 µM | TGI ([26]; read-out: TGI): > 100 µM | GI50 ([26]; read-out: pGI50 (converted)): 23.4 µM | CC50 [26, 31]: > 100 µM | TGI ([26]; read-out: pTGI): > 100 µM | GI50 ([27]; read-out: GI50): 6.47 µM | LC50 ([27]; read-out: LC50): > 100 µM | TGI ([27]; read-out: TGI): > 100 µM | GI50 ([27]; read-out: pGI50 (converted)): 6.46 µM | LC50 ([27]; read-out: pLC50 (converted)): > 100 µM | TGI ([27]; read-out: pTGI): > 100 µM | growth at 1 µM [28]: 91% | growth at 10 µM [29]: -2%
